Data as given in US12643882B2, “Inhibitors of human respiratory syncytial virus and metapneumovirus” (priority 2022, dated 2026).
Read-outs that look alike come from different tables or passages of the source.

How the values were obtained:
RSV-A2-GFP virus = experiment: microbe, parasite or virus in culture; format: cell-based, Human Respiratory Syncytial Virus
Protocol: To set up the assay, ARF vials were thawed in a 37° C. water bath and a control compound was resuspended in assay media DMEM (Dulbecco's Modified Eagle Medium) containing 2% FBS, 100 U/ml Penicillin-Streptomycin.
GFP sequence was derived from pJTI™ R4 Dest CMV N-EmGFP pA Vector (Invitrogen) and was cloned into the intergenic sequence between wild-type RSV-A2 P and M genes using standard recombineering techniques. Recombinant RSV-A2-GFP was propagated in Hep2 cells (human cells contain HeLa marker chromosomes and were derived via HeLa contamination, ATCC CCL-23) with a Multiplicity of Infection (MOI) of 0.1. Virus was harvested 3 days after infection by collecting all culture material and then freeze-thawing the mixture for 5 min. Working virus stocks were generated by thawing frozen viral cultures in 37° C. water bath, which were centrifuged at 218 g for 15 min at 4° C. 1/10 of 10×SPG (Biological Industries 06-3061-01-5A) were added and then mixed. The supernatant was aliquoted, frozen in liquid nitrogen, and then transferred to a −80° C. freezer for storage. Virus titer was determined by automated plaque assay in HEp-2 cells following methods described previously (Wen Z. et al.; 2019).
Calu-1 cells were purchased from ATCC (Cat #HTB-54) and were expanded in growth media (DMEM containing 10% FBS, 100 U/ml Penicillin-Streptomycin). To make ARF, cell culture media was removed and discarded and the cell layer was briefly rinsed with PBS to remove serum. 2.5 mL of TrypLE Express solution were added and cells incubated until dislodged, to which growth media was added and the cells were resuspended by gentle pipetting. Cells were counted for concentration and viability as determined by ViCell. Cells were centrifuged at RT, 300 g for 5 minutes to pellet cells. The supernatant was gently aspirated and the pellet was flicked to loosen cells. Cells were resuspended in an appropriate volume of freezing medium (DMEM containing 10% DMSO, 10% FBS, 100 U/ml Penicillin-Streptomycin) to achieve a concentration of 5×10^6 cells/mL. 1 mL aliquots of the cell suspension were transferred to freezing vials. The vials were put into an upright container in a −80° C. freezer overnight before transferring vials to liquid nitrogen for storage.
Assay ready freezedown (ARF, generation described separately) Calu-1 cells (ATCC HTB-54) were used. Compound plates were prepared by dispensing compounds dissolved in DMSO into the wells of a 384 well Corning® 3985 plate with an ECHO acoustic dispenser and compounds were tested in 10-point serial 3-fold dilution. […] To set up the assay, ARF vial(s) were thawed in a 37° C. water bath and were then resuspended into assay media (DMEM containing 2% FBS, 100 U/ml Penicillin-Streptomycin). Cells were counted using default parameters on ViCell and diluted to 20,000 cells/mL in assay media. RSV-A2-GFP virus was added to cells at 24,000 pfu/ml (MOI=1.2) and mixed by gentle inversion. 10 μL/well of 100% DMSO was dispensed as CellTiter-Glo (CTG) assay Max_E controls wells. The cells were dispensed at 50 μL/well using Bravo with 50 μL filtered tips into compound plates. Plates were covered with MicroClime lids, loaded with 7.5 mL of assay media to minimize evaporation, and were incubated at 37° C. and 5% CO2 for 96 hrs. Following incubation, distinct, GFP-expressing cells were counted using an Acumen imaging system with appropriate settings. A same-well CTG assay was performed by adding 10 μL/well reconstituted CellTiter-Glo reagent (Promega G7573) and plates were read on PerkinElmer Envision according to manufacturer's instructions. Raw data were loaded and analyzed in ActivityBase. Antiviral IC50 and cytotoxicity CC50 values were determined using a 4 parameter logistic fit based on the Levenberg-Marquardt algorithm. Model: 205-4 Parameter Logistic.

hMPV-GFP virus = experiment: microbe, parasite or virus in culture; format: cell-based, human metapneumovirus
Protocol: GFP expressing rgHMPV #3 p3 was generated in Dr. Buchholz's lab (Biacchesi S. et al., J Virol. 2007 June; 81(11): 6057-6067) and propagated in VERO cells (ATCC Cat #CCL-81) with a Multiplicity of Infection (MOI) of 0.1. Virus was harvested 4 days after infection by collecting cultured material and was freeze-thaw cycled in liquid nitrogen twice. Working virus stocks were generated from thawing frozen samples in 37° C. water bath, which were centrifuged at 218 g for 15 min at 4° C. 1/10 of 10×SPG (Biological Industries 06-3061-01-5A) were added and then mixed. The supernatant was aliquoted, frozen in liquid nitrogen, and then transferred to a −80° C. freezer for storage. Virus titer was determined by performing titration test in 96-well plates and calculate approximate virus titer using GFP event/well data.
Compound plates were prepared by dispensing compounds dissolved in DMSO into wells of a 384 well Corning 3985 polystyrene flat clear bottom optical imaging microplate (202.5 nL/well) using an ECHO acoustic dispenser. Each compound was tested in 10-point serial 3-fold dilution (typical final concentrations: 40,300 nM-2 nM). […] Continuous culture of VERO cells was maintained in complete culture media (OptiMEM supplemented with 2 mM GlutaMAX™ and 100 U/ml Penicillin-Streptomycin). To set up the assay, VERO cells were trypsinized with 0.25% Trypsin-EDTA until cells were dislodged, then cells were re-suspended with 1 mL FBS. Cells were spun down at 300 g for 5 minutes and cells were washed twice with culture media and counted using default parameters on ViCell. Cells were then diluted to 100,000 cells/mL (5,000 cells/50 μL) in complete culture media+TrypLE Select (80 μL/mL). hMPV-GFP virus was added to cells at 125,000 pfu/mL (MOI=1.25) and were mixed by gentle inversion. 10 μL/well of 100% DMSO was dispensed to CellTiter-Glo (CTG) assay Max_E controls wells. Cells were dispensed at 50 μL/well using Bravo and 50 μL filtered tips into compound plates. Plates were covered with MicroClime lids and loaded with 7.5 mL of assay media to minimize evaporation. Plates were lightly shaken for 10 minutes at room temperature and then incubated at 37° C. and 5% CO2 for 48 hrs. Following incubation, distinct GFP-expressing cells were counted using an Acumen imaging system with appropriate settings. A same-well CTG assay was performed by adding 10 μL/well reconstituted CellTiter-Glo reagent (Promega G7573) and plates were read on PerkinElmer Envision according to manufacturer's instructions. Raw data were loaded and analyzed in ActivityBase. Antiviral IC50 and cytotoxicity CC50 values were determined using a 4 parameter logistic fit based on the Levenberg-Marquardt algorithm. Model: 205-4 Parameter Logistic. • References: Wen Z, Citron M, Bett A J, Espeseth A S, Vora K A, Zhang L, DiStefano D J. Development and application of a higher throughput RSV plaque assay by immunofluorescent imaging. J Virol Methods. 2019 January; 263:88-95. doi: 10.1016/j.jviromet.2018.10.022. Epub 2018 Oct. 28. PMD: 30381239. • Biacchesi S, Murphy B R, Collins P L, Buchholz U J. Frequent frameshift and point mutations in the SH gene of human metapneumovirus passaged in vitro. J Virol. 2007 June; 81(11):6057-67. doi: 10.1128/JVL.00128-07. Epub 2007 Mar. 21. PMID: 17376897; PMCID: MC 1900297. Assay Data

[1] = Calu-1 cells infected with RSV-A2-GFP, 96 hrs, GFP-expressing cells counted, read-out: RSV EC50
[2] = VERO cells infected with hMPV-GFP, 48 hrs, GFP-expressing cells counted, read-out: hMPV EC50
[3] = read-out: RSV EC50, Calu-1 cells infected with RSV-A2-GFP, 96 hrs, GFP-expressing cells counted
[4] = human metapneumovirus, Vero, 48 h, read-out: hMPV EC50, VERO cells infected with hMPV-GFP, 48 hrs, GFP-expressing cells counted
[5] = read-out: hMPV EC50, VERO cells infected with hMPV-GFP, 48 hrs, GFP-expressing cells counted
[6] = human respiratory syncytial virus, Calu-1, 96 h, read-out: RSV EC50, Calu-1 cells infected with RSV-A2-GFP, 96 hrs, GFP-expressing cells counted

Row | SMILES | EC50 (hMPV-GFP virus; [4]) | EC50 (hMPV-GFP virus; [5]) | EC50 (RSV-A2-GFP virus; [6]) | other results
1 | Cc1nc(-c2ncccn2)sc1C(=O)N1C[C@@H]2C(Oc3cc(C(C)(C)N)cc(C4=CCC(C)CC4)n3)[C@@H]2C1 (mixture of isomers) [Example 46, rac-((1R,5S,6s)-6-((4-(2-aminopropan-2-yl)-6-(4-methylcyclohex-1-en-1-yl)pyridin-2-yl)oxy)-3-azabicyclo[3.1.0]hexan-3-yl)(4-methyl-2-(pyrimidin-2-yl)thiazol-5-yl)methanone] | – | – | – | EC50 (RSV-A2-GFP virus; [1]): < 10 nM; EC50 (hMPV-GFP virus; [2]): > 100 nM
2 | Cc1nc(-c2ncccn2)sc1C(=O)N1C[C@@H]2C(Oc3cc(C(C)(C)N)cc(C4=CCC(C(F)(F)F)CC4)n3)[C@@H]2C1 (mixture of isomers) [Example 47, rac-((1R,5S,6s)-6-((4-(2-aminopropan-2-yl)-6-(4-(trifluoromethyl)cyclohex-1-en-1-yl)pyridin-2-yl)oxy)-3-azabicyclo[3.1.0]hexan-3-yl)(4-methyl-2-(pyrimidin-2-yl)thiazol-5-yl)methanone] | – | – | – | EC50 (RSV-A2-GFP virus; [1]): < 10 nM; EC50 (hMPV-GFP virus; [2]): > 100 nM
3 | Cc1nc(-c2ncccn2)sc1C(=O)N1C[C@@H]2[C@H]1C[C@H]2Oc1cc(C(C)(C)N)cc(-c2ccc(F)cc2)n1 (single isomer, unassigned) [Example 1A] | > 100 nM | – | – | EC50 (RSV-A2-GFP virus; [3]): > 100 nM
4 | Cc1nc(-c2ncccn2)sc1C(=O)N1C[C@@H]2[C@H]1C[C@H]2Oc1cc(C(C)(C)N)cc(-c2ccc(F)cc2)n1 (single isomer, unassigned) [Example 1B] | – | > 100 nM | – | EC50 (RSV-A2-GFP virus; [3]): < 10 nM
5 | CC(C)(N)c1cc(O[C@@H]2C[C@@H]3[C@H]2CN3C(=O)c2cnc(-c3ncccn3)s2)nc(-c2ccc(F)cc2)c1 (single isomer, unassigned) [Example 2] | > 100 nM | – | 10 to 100 nM | –
6 | CC(O)c1nn(-c2ncccn2)cc1C(=O)N1C[C@@H]2C(Oc3cc(C(C)(C)N)cc(-c4ccc(F)c(F)c4)n3)[C@@H]2C1 (single isomer, unassigned; enantiomer 1) [Example 96A] | – | – | – | EC50 (RSV-A2-GFP virus; [1]): < 10 nM; EC50 (hMPV-GFP virus; [2]): > 100 nM
7 | Cc1nc(-c2ncccn2)sc1C(=O)N1C[C@H]2[C@H](Oc3cc(C(C)(C)N)cc(-c4ccc(F)cc4)n3)[C@@]2(C)C1 (single isomer, unassigned; enantiomer 1) [Example 103A] | 10 to 100 nM | – | < 10 nM | –
8 | Cn1nc(-c2ncccn2)cc1C(=O)N1C[C@H]2[C@H](Oc3cc(C(C)(C)N)cc(-c4ccc(F)cc4)n3)[C@@]2(C)C1 (single isomer, unassigned; enantiomer 1) [Example 104A] | > 100 nM | – | < 10 nM | –
9 | Cn1nc(-c2ncccn2)cc1C(=O)N1C[C@H]2[C@H](Oc3cc(C(C)(C)N)cc(-c4ccc(F)c(F)c4)n3)[C@@]2(C)C1 (single isomer, unassigned; enantiomer 1) [Example 105A] | – | > 100 nM | < 10 nM | –
10 | Cc1nn(-c2ncccn2)cc1C(=O)N1C[C@H]2[C@H](Oc3cc(C(C)(C)N)cc(-c4ccc(F)c(F)c4)n3)[C@@]2(C)C1 (single isomer, unassigned; enantiomer 1) [Example 106A] | – | > 100 nM | < 10 nM | –
11 | Cc1nn(-c2ncccn2)cc1C(=O)N1C[C@H]2[C@H](Oc3cc(C(C)(C)N)cc(-c4ccc(F)cc4)n3)[C@@]2(C)C1 (single isomer, unassigned; enantiomer 1) [Example 107A] | > 100 nM | – | < 10 nM | –
12 | Cn1nc(-c2ncccn2)cc1C(=O)N1C[C@H]2[C@H](Oc3cc(C(C)(C)N)cc(-c4ccc(F)cc4F)n3)[C@@]2(C)C1 (single isomer, unassigned; enantiomer 1) [Example 108A] | > 100 nM | – | < 10 nM | –
13 | Cc1nn(-c2ncccn2)cc1C(=O)N1C[C@H]2[C@H](Oc3cc(C(C)(C)N)cc(-c4ccc(F)cc4F)n3)[C@@]2(C)C1 (single isomer, unassigned; enantiomer 1) [Example 109A] | – | > 100 nM | < 10 nM | –
14 | Cn1nc(-c2ncccn2)cc1C(=O)N1C[C@H]2[C@H](Oc3cc(C(C)(C)N)cc(-c4ccc(C(F)(F)F)cc4)n3)[C@@]2(C)C1 (single isomer, unassigned; enantiomer 1) [Example 110A] | – | 10 to 100 nM | < 10 nM | –
15 | Cc1nn(-c2ncccn2)cc1C(=O)N1C[C@H]2[C@H](Oc3cc(C(C)(C)N)cc(-c4ccc(C(F)(F)F)cc4)n3)[C@@]2(C)C1 (single isomer, unassigned; enantiomer 1) [Example 111A] | – | > 100 nM | < 10 nM | –
16 | Cc1nn(-c2ncccn2)cc1C(=O)N1C[C@@H]2[C@H](C1)[C@H]2Oc1cc(C2(C)CCCN2)cc(-c2ccc(F)cc2)n1 (single isomer, unassigned; enantiomer 1) [Example 112] | > 100 nM | – | < 10 nM | –
